Patent publication US6911306B1, “TMS1 compositions and methods of use” (Emory University, priority 1999, dated 2005)
Where a SMILES comes first, the peptide text is derived from it. The star is where a group is joined. Cbz = O=C(OCc1ccccc1)*; CH2F = FC*

What was measured:
[1] = tested on: TMS1 CpG island; assay: Methylation-specific PCR of the TMS1 CpG island after demethylating agent treatment; assay type: cell-based, human; conditions: 0.5 μM for 3 days; ZR75-1, Hs578t and MDA MB231 cells
Description: Bisulfite modification and methylation-specific PCR were performed as previously described. (Herman, J. G., et al., Proc. Natl. Acad. Sci. U.S.A. 93:9821-9826, 1996) Briefly, 2 μg genomic DNA was denatured by incubation at 37° C. in 0.2N NaOH for 10 min. then treated with 3M sodium metabisulfite and 0.5 M hydroquinone at 50° C. for 16 h. DNA was desalted using Wizard DNA Clean-Ups (Promega). Modification was completed by the addition of NaOH to a final concentration of 0.3M and DNA was recovered by ethanol precipitation. Approximately 50 ng bisulfite-modified DNA was amplified by PCR with the following reaction conditions: 67 mM Tris-HCl, pH 8.8, 16.6 mM NH4SO4, 6.7 μM EDTA, 10 mM β-mercaptoethanol, 6.7 mM MgCl2, 1 μM each primer in a 25 μl reaction. Hot start PCR was performed using an initial 5 minute incubation at 95° C. followed by the addition of 0.5 U Taq polymerase (Life Technologies) and 35 cycles of PCR (95° C., 30 s; 58° C., 30 s; 72° C., 30 s). […]
(§1) If loss of TMS1 expression is directly related to methylation of the CpG island, then expression of TMS1 should be restored following treatment with a demethylating agent. […] Methylation of the TMS1 CpG island was analyzed by methylation specific PCR and expression of TMS1 was analyzed by RT-PCR with β-actin controls. […]

[2] = tested on: TMS1 transcript; assay: RT-PCR analysis of TMS1 expression after demethylating agent treatment; assay type: cell-based, human; conditions: 0.5 μM for 3 days; ZR75-1, Hs578t and MDA MB231 cells
Description: Six μg total RNA was pretreated with DNAse I (Life Technologies) and reverse transcribed using random hexamer primers and MMLV-reverse transcriptase according to the manufacturers instructions (Life Technologies). One/30th of the reverse transcriptase reaction equivalent to 200 ng starting RNA was used directly in a PCR reaction. The PCR reaction conditions were: 67 mM Tris-HCl, pH 8.8, 16.6 mM NH4SO4, 6.7 μM EDTA, 10 mM β-mercaptoethanol, 4.7 mM MgCl2, 10% DMSO, 400 nM each primer in a 25 μl reaction. Hot start PCR was performed using an initial 5 minute incubation at 95° C. followed by the addition of 0.5 U Taq polymerase and 35 cycles of PCR (95° C., 30 s; 50-55° C., 60 s; 72° C., 60 s). Primers used for analysis of TMS1 were TGGGCCTGCAGGAGATG-3′ (SEQ ID NO:13) and 5′-ATTTGGTGGGATTGCCAG-3′ (SEQ ID NO:9) with an annealing temperature of 50° C. Primers used for the analysis for β-actin were 5′-[…]-3′ (SEQ ID NO:14) and 5′-[…]-3′ (SEQ ID NO:15) with an annealing temperature of 55° C. […]
as §1

[3] = tested on: pIND1 control cells; assay: Growth of pIND1 control cells; assay type: cell-based, human; conditions: empty-vector control cells
Description: (§2) Human embryonic kidney 293 cells and EcR-293 derivatives (MTMS22 and PIND1) were cultured in DMEM (Life Technologies, Inc. Grand Island, N.Y.) supplemented with 10% fetal bovine serum. MTMS22 and PIND1 cells were maintained in the presence of 400 μg/ml zeocin and 600 μg/ml G418. Transfections of 293 cells were carried out in 24-well dishes with 1×10^5 cells and 0.5 μg total DNA per well using the calcium phosphate method. As a transfection marker, a βgal expression vector (β-gal CMV) was included at a 1:4 ratio with the indicated cDNA constructs. In co-transfections with DN-caspase-8 or DN-caspase-9, 0.2 μg of pcDNA-TMS1 was transfected with 0.2 pg of pcDNA3.1 or DN-caspase-8 or -9 along with 0.1 μg of β-gal CMV as a transfection control.
An ecdysone-regulated expression system was used to create a 293 cell line that inducibly expresses TMS1. […] In addition, a clonal population of cells stably transfected with the empty expression vector was isolated as a control (PIND1). Upon addition of pon A to the MTMS22 cells, mycTMS1 was detectable by western blotting as early as 6 hours after treatment and continued to accumulate in the cells over 48 hours (FIG. 6A). […] By 96 hours, pon A-treated cells were declining in number, confirming cell death. As a biochemical marker for apoptosis, MTMS22 cells were examined for DNA fragmentation in the presence or absence of TMS1 expression. […]

[4] = tested on: MTMS22 cells; assay: MTMS22 cell proliferation with ecdysone-inducible TMS1 expression; assay type: cell-based, human
Description: The Ecdysone-Inducible Mammalian Expression System (Invitrogen, Carlsbad, Calif.) was used to create clones of 293 cells that inducibly express mycTMS1. The mycTMS1 cDNA was cloned into the HindIII/XhoI sites of the pIND expression vector (pIND-mycTMS1). EcR-293 cells (Invitrogen, Carlsbad, Calif.) containing the pVgRXR vector were transfected with pIND-mycTMS1 or pIND using Lipofectamine Reagent (Life Technologies, Grand Island, N.Y.). Cells were maintained in selection medium containing 600 μg/ml G418 for 3 weeks to isolate stably transfected colonies. Clonal populations transfected with pIND-mycTMS1 were then tested for inducible expression by western blot analysis after addition of 5 μM pon A.
as §2, with “In co-transfections with DN-caspase-8 or DN-caspase-9, 0.2 μg of pcDNA-TMS1 was transfected with 0.2 pg of pcDNA3.1 or DN-caspase-8 or -9 along with 0.1 μg of β-gal CMV as a transfection control.” left out

[5] = tested on: 293 cells; assay: Fluorescence microscopy of TMS1 subcellular localization; assay type: cell-based, human; conditions: cells expressing TMS1 in the presence of Z-VAD
Description: Cells were fixed in 4% formaldehyde, permeabilized in 0.2% triton X-100 in PBS and blocked with 3% BSA/0.02% triton X-100 in PBS. Coverslips were incubated with myc antibody (9E10) (Santa Cruz Biotechnology, Santa Cruz, Calif.) at a 1:500 dilution, washed 4 times in PBS/0.02% triton X-100 and incubated with a secondary FITC antibody at a 1:2000 dilution. After 3 more washes, cells were stained with Hoechst 33258 dye to visualize nuclei, washed twice in PBS and mounted on slides. Cells were viewed at 400× or 1000× using the Olympus BX60 microscope. Digital images were captured using IP Lab Spectrum v.3.1 software (Scanalytics, Inc., Fairfax, Va.).

[6] = tested on: MTMS22 cells; assay: DNA fragmentation in MTMS22 cells; assay type: cell-based, human
Description: Where indicated, MTMS22 cells were treated with 5 μM pon A (Invitrogen) or 40 μM Z-VAD-fmk (Enzyme System Products, Livermore, Calif.). DNA was collected from 2×10^6 cells as previously described. (Burow, M. E., et al. Cancer Research. 58: 4940-4946, 1998) 5 μg of DNA from each sample was visualized by separation on a 2% agarose gel containing ethidium bromide.

[7] = tested on: Hs578t cells; assay: Colony formation assay; assay type: cell-based, human; conditions: stable expression, 14 days G418 selection, relative to vector control
Description: Breast cancer cells, including Hs57 8t, (3×10^5) were seeded into six well dishes and transfected with 1 μg pcDNA3.1 or the TMS1 expression constructs using 5 μl Lipofectamine reagent (Life Technologies). Twenty-four hours after transfection, cells were diluted 1:100-1:500 and seeded into 100 mm dishes in medium containing 400 μg/ml G418. After 14 days of selection, stable G418-resistant colonies were fixed and stained with 50% methanol, 0.25% crystal violet, and counted. The total number of colonies recovered per transfection cells was extrapolated from counting at least 300 G418^r colonies per experiment. The number of colonies recovered from cells transfected with pcDNA3.1 in each experiment was considered to be 100%. Three independent transfection experiments were performed.
Given the proapoptotic function of TMS1, the consequences of TMS1 silencing were determined by re-introducing TMS1 into breast cancer cells lacking endogenous TMS1 expression. Colony forming ability of TMS1 negative breast cancer cells stably transfected with TMS1 expression constructs was analyzed in the following manner. Hs578t cells were transfected with the pcDNA3.1 vector or the indicated TMS1 expression construct. Twenty-four hours after transfection, cells were plated at limiting dilution in G418 selection medium. […]

[8] = tested on: NF-κB; assay: CAT assay for NF-κB activation; assay type: cell-based, human; conditions: 293 cells, NF-κB CAT reporter, increasing amounts of TMS1
Description: 293 cells plated at 60% confluence in 6 well dishes were transfected with 0.2 μg of the NF-κB CAT reporter construct (pJECAT2.6) and increasing amounts of pcDNA-mycTMS1 by the calcium phosphate method. 0.2 μg of β-gal CMV was included as a transfection control, and the total amount of DNA transfected was kept constant at 2 μg with pcDNA3.1. Cell lysates were collected 36 h after transfection in β-gal lysis buffer (Promega, Madison, Wis.) and assayed for β-gal activity using the β-Galactosidase Enzyme Assay System (Promega, Madison, Wis.) per manufacturer's instructions. CAT assays were performed basically as described. (Ausubel, F. M., et al. Curr. Prot. Mol. Biol., Vol. 2, pp. 9.7.5-9.7.6: John Wiley & Sons, Inc., 1997) In brief, cell lysates were incubated with [^14C]chloramphenicol and n-butyryl CoA. [^14C]-labeled acetylated chloramphenicol was then separated from the nonacetylated form by organic phase extraction, and radioactive counts were determined using a scintillation counter.

[9] = tested on: 293 human embryonic kidney cells; assay: Morphological apoptosis assay in transiently transfected 293 cells; assay type: cell-based; conditions: 48 h; for apoptosis on ectopic expression: transient transfection of 293 cells
Description: 293 human embryonic kidney cells were plated on glass coverslips in 24 well dishes at 1×10^5 cells per well, and were transfected with 0.4 μg of pcDNA3.1 or the TMS1 expression constructs plus 0.1 μg β-galactosidase expression vector (pCMVβgal, Clonetech) using the calcium phosphate precipitation method. Where indicated, 40 μM zVADfmk (Enzyme System Product, Livermore, Calif.) was included during the recovery period. Forty-eight hours after transfection, coverslips were fixed in 4% paraformaldehyde and stained for β-galactosidase activity, using X-gal, and for nuclear morphology, using Hoecsht […] dye. Cells were visualized by phase contrast microscopy. At least 200 β-galactosidase positive cells from randomly selected fields were counted from each transfection. Apoptotic cells were distinguished based on morphologic features typical of adherent cells undergoing apoptosis, including becoming condensed, rounded and detached from the growth surface as described. (McCarthy, J. V. et al., J.Biol.Chem. 273:16968-16975, 1998). Each transfection experiment was repeated three times.
as §2
48 h after transfection, 293 cells were fixed on coverslips and stained for β-gal activity. Nuclei were stained using Hoechst 33258 dye (Sigma, St. Louis, Mo.). […]

[10] = MTMS22 cells with pon A, 40 μM Z-VAD

Nc1ncn([C@H]2C[C@H](O)[C@@H](CO)O2)c(=O)n1 [5-aza-2′-deoxycytidine]
methylation of the TMS1 CpG island [1]: partial demethylation
expression of TMS1 transcript [2]: re-expression-of TMS1 transcript

COC(=O)C[C@H](NC(=O)[C@H](C)NC(=O)[C@@H](NC(=O)OCc1ccccc1)C(C)C)C(=O)CF [Z-VAD, Z-VAD-fmk] (Cbz-Val-Ala-Asp(OMe)-CH2F)
effect on growth of pIND1 control cells [3]: Neither pon A or Z-VAD had any effect
effect on TMS1-induced cell death [4, 10]: blocked
effect on formation of TMS1-containing spherical aggregates [5]: no effect
effect on TMS1-induced DNA fragmentation [6, 10]: blocked

CC(C)CC[C@@H](O)[C@](C)(O)[C@H]1CC[C@@]2(O)C3=CC(=O)[C@@H]4C[C@@H](O)[C@@H](O)C[C@]4(C)[C@H]3CC[C@]12C [pon A]
effect on growth of pIND1 control cells [3]: Neither pon A or Z-VAD had any effect

TMS1: human TMS1 polypeptide (SEQ ID NO:3) expressed from the TMS1 cDNA in pcDNA3.1
inhibition of colony formation [7]: about 70%
NF-κB-dependent transcriptional activation [8]: no effect
cell growth on induced TMS1 expression ([4]; MTMS22 cells, pon A, by 48 hours after induction): cell growth was significantly inhibited
DNA laddering on induced TMS1 expression ([6]; MTMS22 cells, pon A, as early as 16 hours, most evident at 48 hours): DNA laddering was observed
increase in cell death ([9]; 293 cells, ectopic expression): 6 fold
apoptosis on ectopic expression [9]: induced apoptosis

mycTMS1: TMS1 with a myc-epitope tag fused to amino acid 2
apoptosis on ectopic expression [9]: induced apoptosis
